pKd: −log10 of the molar value. Calls of active or inactive are those of the source. Rule as the data show it, for most assays here: actives have a measured Kd and inactives only a lower limit.
Columns and labels:
[1] = molecular target: Serine/threonine-protein kinase 10 (Homo sapiens, UniProt O94804)
[2] = molecular target: Mitogen-activated protein kinase 10 (Homo sapiens, UniProt P53779)
[3] = molecular target: T1, Phosphorylase b kinase gamma catalytic chain, liver/testis isoform (Homo sapiens, UniProt P15735)
T1 sequence (P15735 whole entry): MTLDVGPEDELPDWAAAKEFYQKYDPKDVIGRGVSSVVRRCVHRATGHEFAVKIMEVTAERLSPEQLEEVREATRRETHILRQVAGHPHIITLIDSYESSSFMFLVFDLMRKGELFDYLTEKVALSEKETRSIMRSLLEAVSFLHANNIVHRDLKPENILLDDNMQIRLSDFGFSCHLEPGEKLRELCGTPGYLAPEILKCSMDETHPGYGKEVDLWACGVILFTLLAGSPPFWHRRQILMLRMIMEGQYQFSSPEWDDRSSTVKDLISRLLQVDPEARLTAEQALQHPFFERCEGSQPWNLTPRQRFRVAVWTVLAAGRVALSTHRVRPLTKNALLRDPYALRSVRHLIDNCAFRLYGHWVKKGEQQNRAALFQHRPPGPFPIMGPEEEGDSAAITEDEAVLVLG

[4] = molecular target: T2, Serine/threonine-protein kinase 4 (Homo sapiens, UniProt Q13043)
T2 sequence (Q13043 whole entry): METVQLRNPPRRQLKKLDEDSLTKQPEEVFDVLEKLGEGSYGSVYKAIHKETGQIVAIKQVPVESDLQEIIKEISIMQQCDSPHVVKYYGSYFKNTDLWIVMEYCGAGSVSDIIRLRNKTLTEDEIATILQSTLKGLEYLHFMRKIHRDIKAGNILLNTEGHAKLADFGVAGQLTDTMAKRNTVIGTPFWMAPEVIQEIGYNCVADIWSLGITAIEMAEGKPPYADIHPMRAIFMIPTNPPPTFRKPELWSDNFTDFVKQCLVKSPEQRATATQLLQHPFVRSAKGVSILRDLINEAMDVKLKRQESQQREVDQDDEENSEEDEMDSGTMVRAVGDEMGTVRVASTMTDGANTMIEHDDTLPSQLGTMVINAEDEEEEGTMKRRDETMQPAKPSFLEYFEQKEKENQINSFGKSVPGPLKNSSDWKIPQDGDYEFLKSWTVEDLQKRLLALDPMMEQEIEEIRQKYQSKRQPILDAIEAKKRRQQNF

[5] = molecular target: Tyrosine-protein kinase SYK (Homo sapiens, UniProt P43405)
[6] = molecular target: T3, Phenylalanine--tRNA ligase beta subunit (Homo sapiens, UniProt Q9NSD9)
T3 sequence (Q9NSD9 whole entry): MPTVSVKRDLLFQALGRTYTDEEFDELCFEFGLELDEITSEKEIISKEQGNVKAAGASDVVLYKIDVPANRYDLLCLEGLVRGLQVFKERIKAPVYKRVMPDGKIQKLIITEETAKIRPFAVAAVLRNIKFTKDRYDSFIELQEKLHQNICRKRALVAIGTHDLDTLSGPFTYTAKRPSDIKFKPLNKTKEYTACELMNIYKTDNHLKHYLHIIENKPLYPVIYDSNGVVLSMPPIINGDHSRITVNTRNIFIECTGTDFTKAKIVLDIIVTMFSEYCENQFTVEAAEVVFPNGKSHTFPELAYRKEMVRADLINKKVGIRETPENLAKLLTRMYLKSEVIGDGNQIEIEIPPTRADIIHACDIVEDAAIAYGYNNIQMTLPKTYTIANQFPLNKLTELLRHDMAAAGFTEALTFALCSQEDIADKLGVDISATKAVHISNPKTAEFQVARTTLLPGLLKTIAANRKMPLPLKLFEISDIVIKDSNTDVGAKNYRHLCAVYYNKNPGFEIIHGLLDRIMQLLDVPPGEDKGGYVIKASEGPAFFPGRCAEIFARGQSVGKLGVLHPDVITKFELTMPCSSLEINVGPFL

[7] = molecular target: U5 small nuclear ribonucleoprotein 200 kDa helicase (Homo sapiens, UniProt O75643)
[8] = molecular target: T4, Serine/threonine-protein kinase TAO1 (Homo sapiens, UniProt Q7L7X3)
T4 sequence (Q7L7X3 whole entry): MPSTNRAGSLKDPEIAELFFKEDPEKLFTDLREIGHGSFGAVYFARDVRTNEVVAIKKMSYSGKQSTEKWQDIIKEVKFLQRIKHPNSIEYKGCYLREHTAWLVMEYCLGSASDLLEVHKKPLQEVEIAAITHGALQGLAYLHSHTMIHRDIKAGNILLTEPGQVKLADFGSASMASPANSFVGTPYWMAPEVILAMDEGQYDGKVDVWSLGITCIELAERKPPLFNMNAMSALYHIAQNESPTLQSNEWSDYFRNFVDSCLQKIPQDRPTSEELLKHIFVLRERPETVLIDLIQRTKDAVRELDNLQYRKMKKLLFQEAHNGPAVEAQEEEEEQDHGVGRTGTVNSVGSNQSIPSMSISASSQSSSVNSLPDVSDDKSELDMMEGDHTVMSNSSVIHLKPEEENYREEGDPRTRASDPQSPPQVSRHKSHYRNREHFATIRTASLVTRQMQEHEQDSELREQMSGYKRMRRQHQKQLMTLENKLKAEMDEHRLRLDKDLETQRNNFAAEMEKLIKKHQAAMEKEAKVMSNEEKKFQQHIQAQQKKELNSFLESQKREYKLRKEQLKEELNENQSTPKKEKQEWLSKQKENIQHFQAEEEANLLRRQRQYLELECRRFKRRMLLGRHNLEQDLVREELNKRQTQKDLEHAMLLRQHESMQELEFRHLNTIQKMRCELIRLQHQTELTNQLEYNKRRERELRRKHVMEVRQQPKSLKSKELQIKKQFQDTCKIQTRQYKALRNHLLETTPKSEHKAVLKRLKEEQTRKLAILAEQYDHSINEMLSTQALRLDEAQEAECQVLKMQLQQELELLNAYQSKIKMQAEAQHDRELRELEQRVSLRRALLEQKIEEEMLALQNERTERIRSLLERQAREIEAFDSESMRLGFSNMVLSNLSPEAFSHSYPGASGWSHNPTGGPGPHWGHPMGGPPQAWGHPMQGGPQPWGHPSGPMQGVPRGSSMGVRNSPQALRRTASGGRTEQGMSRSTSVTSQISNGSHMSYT

[9] = molecular target: Tyrosine-protein kinase Fer (Homo sapiens, UniProt P16591)
[10] = molecular target: RAC-alpha serine/threonine-protein kinase (Homo sapiens, UniProt P31749)
[11] = molecular target: STE20-like serine/threonine-protein kinase (Homo sapiens, UniProt Q9H2G2)
[12] = molecular target: Mitogen-activated protein kinase 9 (Homo sapiens, UniProt P45984)
Also: in the data inactive means no Kd found up to 30 µM.

Sequence of STE20-like serine/threonine-protein kinase (Q9H2G2 whole entry): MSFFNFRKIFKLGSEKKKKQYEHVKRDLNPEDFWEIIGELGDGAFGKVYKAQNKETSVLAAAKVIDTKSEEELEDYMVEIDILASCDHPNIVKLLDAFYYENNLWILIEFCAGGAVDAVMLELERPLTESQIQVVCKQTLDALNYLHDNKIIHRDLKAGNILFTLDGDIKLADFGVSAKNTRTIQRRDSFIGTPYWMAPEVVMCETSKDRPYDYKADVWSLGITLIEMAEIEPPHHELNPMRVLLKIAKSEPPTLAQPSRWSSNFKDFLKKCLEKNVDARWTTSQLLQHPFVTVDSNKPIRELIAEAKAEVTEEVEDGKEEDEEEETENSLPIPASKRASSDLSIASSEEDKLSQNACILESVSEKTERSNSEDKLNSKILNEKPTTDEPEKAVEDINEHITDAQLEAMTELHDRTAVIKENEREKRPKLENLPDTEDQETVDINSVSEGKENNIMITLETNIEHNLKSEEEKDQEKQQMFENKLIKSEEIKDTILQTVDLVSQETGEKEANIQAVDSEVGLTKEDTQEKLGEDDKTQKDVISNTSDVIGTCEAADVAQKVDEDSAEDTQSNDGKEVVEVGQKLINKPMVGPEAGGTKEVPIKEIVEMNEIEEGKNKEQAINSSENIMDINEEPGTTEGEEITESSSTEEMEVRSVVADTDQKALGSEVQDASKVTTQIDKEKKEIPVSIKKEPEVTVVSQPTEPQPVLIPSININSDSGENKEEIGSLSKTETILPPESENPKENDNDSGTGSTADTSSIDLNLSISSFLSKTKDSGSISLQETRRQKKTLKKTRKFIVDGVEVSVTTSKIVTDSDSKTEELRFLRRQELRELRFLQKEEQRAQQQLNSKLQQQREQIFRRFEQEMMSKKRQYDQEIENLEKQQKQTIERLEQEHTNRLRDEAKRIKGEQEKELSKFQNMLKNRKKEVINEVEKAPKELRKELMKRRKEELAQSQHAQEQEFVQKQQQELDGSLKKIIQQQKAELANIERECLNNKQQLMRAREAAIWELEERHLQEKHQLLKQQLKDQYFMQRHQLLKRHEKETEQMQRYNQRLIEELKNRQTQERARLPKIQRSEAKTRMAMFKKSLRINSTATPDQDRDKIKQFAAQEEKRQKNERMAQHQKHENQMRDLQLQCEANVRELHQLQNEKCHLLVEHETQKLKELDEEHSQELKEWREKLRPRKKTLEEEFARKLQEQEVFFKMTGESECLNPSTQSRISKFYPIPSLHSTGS
Sequence of Mitogen-activated protein kinase 9 (P45984 whole entry): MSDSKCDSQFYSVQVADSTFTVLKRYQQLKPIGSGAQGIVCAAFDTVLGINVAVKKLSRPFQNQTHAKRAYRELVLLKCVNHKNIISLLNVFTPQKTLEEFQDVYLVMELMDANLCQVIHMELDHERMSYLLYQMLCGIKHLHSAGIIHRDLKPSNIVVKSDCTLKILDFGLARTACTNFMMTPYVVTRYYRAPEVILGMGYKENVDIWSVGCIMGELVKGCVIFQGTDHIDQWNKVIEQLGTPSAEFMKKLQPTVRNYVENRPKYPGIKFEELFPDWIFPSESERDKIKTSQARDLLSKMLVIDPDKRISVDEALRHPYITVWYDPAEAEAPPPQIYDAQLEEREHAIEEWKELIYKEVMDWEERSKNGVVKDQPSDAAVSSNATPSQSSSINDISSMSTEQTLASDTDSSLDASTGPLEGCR
Sequence of RAC-alpha serine/threonine-protein kinase (P31749 whole entry): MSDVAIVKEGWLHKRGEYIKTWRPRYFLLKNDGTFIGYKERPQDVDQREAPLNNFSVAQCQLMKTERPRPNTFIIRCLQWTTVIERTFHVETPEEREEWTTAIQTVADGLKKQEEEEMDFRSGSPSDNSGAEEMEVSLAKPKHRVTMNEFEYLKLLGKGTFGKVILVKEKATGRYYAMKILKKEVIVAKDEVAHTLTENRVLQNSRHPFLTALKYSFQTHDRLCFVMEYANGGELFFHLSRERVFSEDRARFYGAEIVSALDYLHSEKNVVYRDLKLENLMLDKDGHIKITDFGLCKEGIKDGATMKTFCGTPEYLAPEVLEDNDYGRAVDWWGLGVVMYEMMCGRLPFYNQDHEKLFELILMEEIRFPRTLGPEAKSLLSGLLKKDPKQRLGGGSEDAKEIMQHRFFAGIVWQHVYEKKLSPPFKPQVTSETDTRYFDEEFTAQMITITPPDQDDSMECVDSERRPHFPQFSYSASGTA
Sequence of Serine/threonine-protein kinase 10 (O94804 whole entry): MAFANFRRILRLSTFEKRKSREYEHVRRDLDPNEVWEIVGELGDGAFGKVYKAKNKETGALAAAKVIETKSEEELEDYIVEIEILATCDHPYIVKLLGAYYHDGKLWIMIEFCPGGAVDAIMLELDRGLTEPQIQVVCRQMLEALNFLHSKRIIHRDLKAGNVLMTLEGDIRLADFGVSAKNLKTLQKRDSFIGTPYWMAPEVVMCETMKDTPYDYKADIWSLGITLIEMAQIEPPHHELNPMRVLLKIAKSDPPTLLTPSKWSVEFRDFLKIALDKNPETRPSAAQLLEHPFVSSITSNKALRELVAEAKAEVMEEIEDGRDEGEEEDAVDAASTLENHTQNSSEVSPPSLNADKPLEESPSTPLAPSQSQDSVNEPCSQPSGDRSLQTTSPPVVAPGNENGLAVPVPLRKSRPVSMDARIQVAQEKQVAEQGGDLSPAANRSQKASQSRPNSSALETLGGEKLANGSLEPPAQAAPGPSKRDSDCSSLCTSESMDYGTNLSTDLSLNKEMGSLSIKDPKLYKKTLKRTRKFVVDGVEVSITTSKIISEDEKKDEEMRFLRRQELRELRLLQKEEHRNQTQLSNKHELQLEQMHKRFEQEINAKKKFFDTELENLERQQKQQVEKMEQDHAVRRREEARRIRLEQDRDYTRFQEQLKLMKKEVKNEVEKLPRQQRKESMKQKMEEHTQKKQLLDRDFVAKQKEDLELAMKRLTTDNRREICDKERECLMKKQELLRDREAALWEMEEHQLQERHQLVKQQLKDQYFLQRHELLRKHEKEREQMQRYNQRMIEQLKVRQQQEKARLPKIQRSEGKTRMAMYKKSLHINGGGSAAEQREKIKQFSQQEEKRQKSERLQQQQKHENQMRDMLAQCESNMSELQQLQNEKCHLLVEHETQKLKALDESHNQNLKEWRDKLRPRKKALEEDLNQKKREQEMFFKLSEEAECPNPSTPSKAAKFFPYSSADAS
Sequence of Mitogen-activated protein kinase 10 (P53779 whole entry, canonical isoform): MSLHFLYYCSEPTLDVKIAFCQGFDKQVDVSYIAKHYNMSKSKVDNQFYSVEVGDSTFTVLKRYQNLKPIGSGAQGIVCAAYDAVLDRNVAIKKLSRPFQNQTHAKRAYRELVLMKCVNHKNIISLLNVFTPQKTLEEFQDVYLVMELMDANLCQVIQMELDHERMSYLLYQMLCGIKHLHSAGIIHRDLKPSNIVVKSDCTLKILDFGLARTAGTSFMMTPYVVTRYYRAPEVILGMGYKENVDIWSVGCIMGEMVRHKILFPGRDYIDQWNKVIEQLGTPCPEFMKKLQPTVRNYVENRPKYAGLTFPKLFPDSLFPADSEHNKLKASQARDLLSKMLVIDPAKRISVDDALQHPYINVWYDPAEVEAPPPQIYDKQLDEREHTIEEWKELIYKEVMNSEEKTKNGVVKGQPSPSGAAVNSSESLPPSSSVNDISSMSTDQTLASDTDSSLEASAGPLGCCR
Sequence of Tyrosine-protein kinase Fer (P16591 whole entry): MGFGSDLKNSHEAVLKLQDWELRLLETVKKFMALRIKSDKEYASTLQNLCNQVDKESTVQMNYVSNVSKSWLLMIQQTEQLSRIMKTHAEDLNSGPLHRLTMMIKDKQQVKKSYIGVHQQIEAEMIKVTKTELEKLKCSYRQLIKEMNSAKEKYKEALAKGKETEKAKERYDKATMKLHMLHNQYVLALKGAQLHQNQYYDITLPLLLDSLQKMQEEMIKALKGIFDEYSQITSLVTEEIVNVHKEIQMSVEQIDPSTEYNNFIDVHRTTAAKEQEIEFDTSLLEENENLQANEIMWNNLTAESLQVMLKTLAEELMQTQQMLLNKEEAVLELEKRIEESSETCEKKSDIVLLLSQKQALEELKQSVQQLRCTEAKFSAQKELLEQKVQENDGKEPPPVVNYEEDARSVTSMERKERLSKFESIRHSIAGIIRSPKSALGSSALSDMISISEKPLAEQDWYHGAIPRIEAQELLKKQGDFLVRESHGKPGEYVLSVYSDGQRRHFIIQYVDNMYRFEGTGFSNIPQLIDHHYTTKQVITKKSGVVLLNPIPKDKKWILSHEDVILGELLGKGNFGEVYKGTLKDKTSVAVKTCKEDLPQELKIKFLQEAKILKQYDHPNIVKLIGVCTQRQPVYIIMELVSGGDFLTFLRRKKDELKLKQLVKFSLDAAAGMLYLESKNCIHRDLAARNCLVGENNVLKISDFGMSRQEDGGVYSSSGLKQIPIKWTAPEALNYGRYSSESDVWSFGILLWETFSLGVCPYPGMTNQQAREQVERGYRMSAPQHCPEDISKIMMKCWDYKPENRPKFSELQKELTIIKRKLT

Row | Kd [1] | Kd [3] | Kd [4] | Kd [5] | Kd [6] | Kd [7] | Kd [8] | Kd [9] | Kd [10] | Kd [11] | Kd [12] | pKd [2] | Structure (SMILES) | Kd [2]
1 | > 30 µM (inactive) | > 30 µM (inactive) | > 30 µM (inactive) | > 30 µM (inactive) | > 30 µM (inactive) | > 30 µM (inactive) | > 30 µM (inactive) | > 30 µM (inactive) | > 30 µM (inactive) | > 30 µM (inactive) | > 30 µM (inactive) | 5.79 | COc1cccc2cc(-c3nc([C@H]4CC[C@H](C(=O)O)CC4)n4ncnc(N)c34)[nH]c12 [OSI-027] | –
2 | > 30 µM (inactive) | > 30 µM (inactive) | > 30 µM (inactive) | > 30 µM (inactive) | > 30 µM (inactive) | > 30 µM (inactive) | > 30 µM (inactive) | > 30 µM (inactive) | > 30 µM (inactive) | > 30 µM (inactive) | 0.34 µM (active) | – | c1cc(OCCN2CCCCC2)cc(-c2n[nH]c3ccc(-c4nc[nH]n4)cc23)c1 [CC-401] | 3.24 µM (active)

The next lines start with the compound.

Row | Structure (SMILES) | Kd [1] | Kd [3] | Kd [4] | Kd [5] | Kd [6] | Kd [7] | Kd [8] | Kd [9] | Kd [10] | Kd [11] | Kd [12] | pKd [2] | Kd [2]
3 | Cc1ccc(C(=O)Nc2ccc(Oc3cc4cnn(C)c4cc3-c3cn[nH]c3)c(F)c2)c(=O)n1-c1ccc(F)cc1 [MERESTINIB] | > 30 µM (inactive) | > 30 µM (inactive) | > 30 µM (inactive) | > 30 µM (inactive) | > 30 µM (inactive) | > 30 µM (inactive) | > 30 µM (inactive) | > 30 µM (inactive) | > 30 µM (inactive) | > 30 µM (inactive) | > 30 µM (inactive) | – | > 30 µM (inactive)
4 | Cn1cc(-c2[nH]c3cc(NC(=O)[C@H](N)C4CCCCC4)cc4c3c2C=NNC4=O)cn1 | > 30 µM (inactive) | > 30 µM (inactive) | > 30 µM (inactive) | > 30 µM (inactive) | > 30 µM (inactive) | > 30 µM (inactive) | > 30 µM (inactive) | > 30 µM (inactive) | > 30 µM (inactive) | > 30 µM (inactive) | > 30 µM (inactive) | – | > 30 µM (inactive)
5 | C=CC(=O)Nc1cc(Nc2nccc(-c3cn(C)c4ccccc34)n2)c(OC)cc1N(C)CCN(C)C [OSIMERTINIB] | > 30 µM (inactive) | > 30 µM (inactive) | > 30 µM (inactive) | > 30 µM (inactive) | > 30 µM (inactive) | > 30 µM (inactive) | > 30 µM (inactive) | > 30 µM (inactive) | > 30 µM (inactive) | > 30 µM (inactive) | > 30 µM (inactive) | – | > 30 µM (inactive)
6 | CNC(=O)c1ccc(Nc2ncc(C(F)(F)F)c(NCc3nccnc3N(C)S(C)(=O)=O)n2)cc1 [DEFACTINIB] | > 30 µM (inactive) | > 30 µM (inactive) | 2.45 µM (active) | > 30 µM (inactive) | > 30 µM (inactive) | > 30 µM (inactive) | 3.23 µM (active) | 1.3 µM (active) | > 30 µM (inactive) | 41 µM (active) | > 30 µM (inactive) | – | > 30 µM (inactive)
7 | Cc1cc(C(=O)Nc2cc(Oc3ccc4nc(NC(=O)C5CC5)cn4n3)ccc2C)n(C)n1 [TAK-593] | > 30 µM (inactive) | > 30 µM (inactive) | > 30 µM (inactive) | > 30 µM (inactive) | > 30 µM (inactive) | > 30 µM (inactive) | > 30 µM (inactive) | > 30 µM (inactive) | > 30 µM (inactive) | > 30 µM (inactive) | > 30 µM (inactive) | – | > 30 µM (inactive)

— ChEMBL document CHEMBL3991601, “The target landscape of clinical kinase drugs” (Science, 2017)
